Experimental data reported in BindingDB's records for PubMed 20126400 (University of Oklahoma, 2010).
Where “and” joins values, the source holds several entries; their conditions need not be identical. Equal entries are not always repeated.

Key:
[1] = molecular target: Neuronal acetylcholine receptor subunit alpha-4/beta-4 (Homo sapiens, UniProt P43681+P30926); test: Ray2010 Assay 74
Excerpt: (§1) Table S2 shows raw Ki data for the current study combined with data collected from the literature for the ten additional compounds.

[2] = molecular target: Neuronal acetylcholine receptor subunit alpha-4/beta-2 (Homo sapiens, UniProt P43681+P17787); test: Ray2010 Assay 74
Excerpt: as §1

[3] = molecular target: Neuronal acetylcholine receptor subunit alpha-2/beta-4 (Homo sapiens, UniProt Q15822+P30926); test: Ray2010 Assay 74
Excerpt: as §1

[4] = molecular target: Alpha-2B adrenergic receptor (Homo sapiens, UniProt P18089); test: Ray2010 Assay 74
Excerpt: as §1

[5] = molecular target: T1, 5-hydroxytryptamine receptor 1A (Homo sapiens, UniProt P08908); test: Ray2010 Assay 28
T1 sequence (P08908 whole entry): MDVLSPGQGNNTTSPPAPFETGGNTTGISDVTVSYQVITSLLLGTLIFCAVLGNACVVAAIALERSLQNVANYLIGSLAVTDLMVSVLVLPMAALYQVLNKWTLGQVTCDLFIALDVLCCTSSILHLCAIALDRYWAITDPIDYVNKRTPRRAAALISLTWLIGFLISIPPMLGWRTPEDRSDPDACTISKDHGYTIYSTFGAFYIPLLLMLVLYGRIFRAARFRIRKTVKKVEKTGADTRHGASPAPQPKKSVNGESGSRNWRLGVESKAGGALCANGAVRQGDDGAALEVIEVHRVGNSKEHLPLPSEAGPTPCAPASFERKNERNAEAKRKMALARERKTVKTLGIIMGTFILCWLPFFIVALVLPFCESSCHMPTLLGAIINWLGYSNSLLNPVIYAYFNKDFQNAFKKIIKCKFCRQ
Excerpt: 8-oh-dpat cloned PDSP web; .

[6] = molecular target: Muscarinic acetylcholine receptor M1 (Rattus norvegicus, UniProt P08482); test: Ray2010 Assay 47
Excerpt: pirenzepine forebrain .

[7] = molecular target: T2, Glutamate receptor ionotropic, NMDA 2D (Rattus norvegicus, UniProt Q62645); test: Ray2010 Assay 66
Excerpt: MK-801 midbrain .

[8] = molecular target: 5-hydroxytryptamine receptor 2A (Rattus norvegicus, UniProt P14842); test: Ray2010 Assay 25
Excerpt: ketanserin cloned PDSP web; .

[9] = molecular target: T2, Glutamate receptor ionotropic, NMDA 2D; test: Ray2010 Assay 65
Excerpt: MK-801 spinal cord .

[10] = molecular target: Sigma non-opioid intracellular receptor 1 (Cavia porcellus, UniProt Q60492); test: Ray2010 Assay 39
Excerpt: (+)-pentazocine brain Mach et al.1995.

[11] = molecular target: Muscarinic acetylcholine receptor (UniProt F1N5C5); test: Ray2010 Assay 45
Excerpt: pirenzepine hippocampus .

[12] = molecular target: Gamma-aminobutyric acid receptor subunit alpha-1 (Bos taurus, UniProt P08219); test: Ray2010 Assay 70
Excerpt: muscimol cortex .

[13] = molecular target: Sigma non-opioid intracellular receptor 1 (UniProt Q58DH7); test: Ray2010 Assay 40
Excerpt: (+)-pentazocine caudate .

[14] = molecular target: T2, Glutamate receptor ionotropic, NMDA 2D; test: Ray2010 Assay 69
Excerpt: dizocilpine forebrain .

Mu-type opioid receptor = Mu-type opioid receptor (Bos taurus, UniProt P79350); test: Ray2010 Assay 55
Excerpt: DAGO cortex .

[15] = molecular target: T2, Glutamate receptor ionotropic, NMDA 2D; test: Ray2010 Assay 68
Excerpt: MK-801 basal forebrain .

[16] = molecular target: T2, Glutamate receptor ionotropic, NMDA 2D; test: Ray2010 Assay 67
Excerpt: MK-801 cerebellum .

[17] = molecular target: 5-hydroxytryptamine receptor 1D (UniProt F1MMU1); test: Ray2010 Assay 30
Excerpt: 5-HT caudate .

[18] = molecular target: T3, Muscarinic acetylcholine receptor M2 (Rattus norvegicus, UniProt P10980); test: Ray2010 Assay 50
Excerpt: AF-DX384 forebrain .

[19] = molecular target: Beta-1 adrenergic receptor (Rattus norvegicus, UniProt P18090); test: Ray2010 Assay 35
Excerpt: dihydro-alprenalol HCL cortex .

D(2) dopamine receptor = D(2) dopamine receptor (Homo sapiens, UniProt P14416); test: Ray2010 Assay 32
Excerpt: YM 09191-2 cloned PDSP web; .

[20] = molecular target: T2, Glutamate receptor ionotropic, NMDA 2D; test: Ray2010 Assay 64
Excerpt: MK-801 Thalamus + hypothalamus .

[21] = molecular target: Muscarinic acetylcholine receptor M2 (Bos taurus, UniProt P41985); test: Ray2010 Assay 49
Excerpt: QBN cortex .

D(3) dopamine receptor = D(3) dopamine receptor (Bos taurus, UniProt F1N454); test: Ray2010 Assay 33
Excerpt: 7-OH-DPAT caudate .

[22] = molecular target: Sigma intracellular receptor 2 (Rattus norvegicus, UniProt Q5U3Y7); test: Ray2010 Assay 42
Excerpt: DTG liver .

[23] = molecular target: T3, Muscarinic acetylcholine receptor M2; test: Ray2010 Assay 48
Excerpt: (§2) N-methylacoblamine forebrain .

[24] = molecular target: Muscarinic acetylcholine receptor M3 (Rattus norvegicus, UniProt P08483); test: Ray2010 Assay 48
Excerpt: as §2

[25] = molecular target: T2, Glutamate receptor ionotropic, NMDA 2D; test: Ray2010 Assay 62
Excerpt: MK-801 hippocampus .

T2 sequence (Q62645 whole entry): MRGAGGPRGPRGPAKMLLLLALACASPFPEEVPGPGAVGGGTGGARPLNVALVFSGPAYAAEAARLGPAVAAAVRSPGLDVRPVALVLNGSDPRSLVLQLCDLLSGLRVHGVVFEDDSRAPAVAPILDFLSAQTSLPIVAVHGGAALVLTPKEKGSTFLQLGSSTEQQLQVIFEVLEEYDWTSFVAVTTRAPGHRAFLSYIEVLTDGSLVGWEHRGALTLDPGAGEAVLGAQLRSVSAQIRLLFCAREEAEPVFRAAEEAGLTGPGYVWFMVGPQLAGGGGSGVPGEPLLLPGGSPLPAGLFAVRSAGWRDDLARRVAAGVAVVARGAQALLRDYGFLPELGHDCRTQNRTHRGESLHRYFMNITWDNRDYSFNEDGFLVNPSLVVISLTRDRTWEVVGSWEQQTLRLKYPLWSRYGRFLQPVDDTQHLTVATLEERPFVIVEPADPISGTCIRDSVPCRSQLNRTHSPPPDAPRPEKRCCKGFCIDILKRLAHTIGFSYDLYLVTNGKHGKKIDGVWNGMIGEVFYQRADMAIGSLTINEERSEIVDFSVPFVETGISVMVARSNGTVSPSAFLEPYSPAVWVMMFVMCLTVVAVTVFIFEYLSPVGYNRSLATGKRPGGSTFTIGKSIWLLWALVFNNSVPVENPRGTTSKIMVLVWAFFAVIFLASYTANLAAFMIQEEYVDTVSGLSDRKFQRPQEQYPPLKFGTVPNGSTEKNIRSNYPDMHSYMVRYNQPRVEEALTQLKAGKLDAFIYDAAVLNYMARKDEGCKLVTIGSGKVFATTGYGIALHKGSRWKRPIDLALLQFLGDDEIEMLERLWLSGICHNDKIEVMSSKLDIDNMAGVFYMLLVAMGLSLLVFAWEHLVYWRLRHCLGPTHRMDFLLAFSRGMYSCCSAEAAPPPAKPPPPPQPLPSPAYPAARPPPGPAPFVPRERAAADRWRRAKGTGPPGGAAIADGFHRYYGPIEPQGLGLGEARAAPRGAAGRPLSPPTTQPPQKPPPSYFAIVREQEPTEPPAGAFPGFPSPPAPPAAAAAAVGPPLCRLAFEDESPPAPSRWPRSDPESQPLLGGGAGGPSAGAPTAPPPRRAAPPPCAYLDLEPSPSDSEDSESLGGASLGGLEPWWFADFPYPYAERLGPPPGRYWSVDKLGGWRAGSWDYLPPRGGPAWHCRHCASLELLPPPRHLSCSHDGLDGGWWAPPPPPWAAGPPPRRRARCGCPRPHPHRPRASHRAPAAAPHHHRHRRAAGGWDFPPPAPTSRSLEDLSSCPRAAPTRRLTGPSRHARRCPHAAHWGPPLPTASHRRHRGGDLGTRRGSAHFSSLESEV
T3 sequence (P10980 whole entry): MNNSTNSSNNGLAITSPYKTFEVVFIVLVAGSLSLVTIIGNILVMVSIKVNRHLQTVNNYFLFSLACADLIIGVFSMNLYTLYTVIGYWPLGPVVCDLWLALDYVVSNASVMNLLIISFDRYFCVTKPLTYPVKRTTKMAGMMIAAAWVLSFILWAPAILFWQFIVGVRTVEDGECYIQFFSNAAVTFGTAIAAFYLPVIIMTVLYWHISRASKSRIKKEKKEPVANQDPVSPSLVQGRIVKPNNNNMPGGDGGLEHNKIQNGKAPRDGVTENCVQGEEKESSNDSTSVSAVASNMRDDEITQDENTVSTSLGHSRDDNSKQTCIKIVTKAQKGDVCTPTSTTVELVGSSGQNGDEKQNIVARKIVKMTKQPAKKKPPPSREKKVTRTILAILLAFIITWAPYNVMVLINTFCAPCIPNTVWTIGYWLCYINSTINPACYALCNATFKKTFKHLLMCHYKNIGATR
Chain of Mu-type opioid receptor (P79350 whole entry): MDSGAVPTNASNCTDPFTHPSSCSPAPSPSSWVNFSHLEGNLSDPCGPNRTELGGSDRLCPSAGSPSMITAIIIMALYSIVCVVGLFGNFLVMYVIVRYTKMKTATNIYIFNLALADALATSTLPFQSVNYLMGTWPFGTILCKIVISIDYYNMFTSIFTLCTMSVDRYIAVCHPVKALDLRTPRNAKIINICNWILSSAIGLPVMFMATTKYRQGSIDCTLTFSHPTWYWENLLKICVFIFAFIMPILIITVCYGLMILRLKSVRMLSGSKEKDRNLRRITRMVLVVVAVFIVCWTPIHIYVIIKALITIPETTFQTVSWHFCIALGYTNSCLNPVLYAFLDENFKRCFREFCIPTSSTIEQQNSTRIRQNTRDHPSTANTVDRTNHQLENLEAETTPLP
Chain of Sigma non-opioid intracellular receptor 1 (Cavia porcellus, UniProt Q60492) (Q60492 whole entry): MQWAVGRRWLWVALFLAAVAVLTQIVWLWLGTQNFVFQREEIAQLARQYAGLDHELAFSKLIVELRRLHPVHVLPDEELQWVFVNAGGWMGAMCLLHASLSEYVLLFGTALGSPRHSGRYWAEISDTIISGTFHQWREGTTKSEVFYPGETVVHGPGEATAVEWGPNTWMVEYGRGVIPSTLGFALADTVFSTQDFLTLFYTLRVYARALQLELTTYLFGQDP
Chain of D(3) dopamine receptor (F1N454 whole entry): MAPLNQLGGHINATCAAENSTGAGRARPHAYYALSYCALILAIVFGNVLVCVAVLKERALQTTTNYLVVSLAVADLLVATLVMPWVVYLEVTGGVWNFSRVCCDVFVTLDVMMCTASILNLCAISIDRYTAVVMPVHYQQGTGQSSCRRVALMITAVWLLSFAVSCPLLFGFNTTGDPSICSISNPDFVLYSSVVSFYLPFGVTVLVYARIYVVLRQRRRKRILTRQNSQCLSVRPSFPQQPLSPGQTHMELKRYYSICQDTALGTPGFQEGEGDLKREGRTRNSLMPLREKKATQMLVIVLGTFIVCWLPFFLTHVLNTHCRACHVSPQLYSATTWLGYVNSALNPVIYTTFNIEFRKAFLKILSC
Chain of Alpha-2B adrenergic receptor (P18089 whole entry): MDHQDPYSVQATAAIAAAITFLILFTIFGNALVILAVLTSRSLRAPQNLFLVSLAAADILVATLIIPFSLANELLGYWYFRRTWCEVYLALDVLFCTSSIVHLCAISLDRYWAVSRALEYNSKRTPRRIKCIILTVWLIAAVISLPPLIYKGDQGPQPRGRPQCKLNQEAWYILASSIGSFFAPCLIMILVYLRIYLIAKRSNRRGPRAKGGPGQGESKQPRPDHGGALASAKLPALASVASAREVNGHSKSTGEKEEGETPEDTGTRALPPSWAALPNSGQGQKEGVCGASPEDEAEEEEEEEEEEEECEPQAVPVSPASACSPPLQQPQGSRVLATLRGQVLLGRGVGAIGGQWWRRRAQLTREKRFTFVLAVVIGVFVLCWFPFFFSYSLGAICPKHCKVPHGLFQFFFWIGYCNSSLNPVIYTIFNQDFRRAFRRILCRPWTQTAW
Chain of Muscarinic acetylcholine receptor (F1N5C5 whole entry): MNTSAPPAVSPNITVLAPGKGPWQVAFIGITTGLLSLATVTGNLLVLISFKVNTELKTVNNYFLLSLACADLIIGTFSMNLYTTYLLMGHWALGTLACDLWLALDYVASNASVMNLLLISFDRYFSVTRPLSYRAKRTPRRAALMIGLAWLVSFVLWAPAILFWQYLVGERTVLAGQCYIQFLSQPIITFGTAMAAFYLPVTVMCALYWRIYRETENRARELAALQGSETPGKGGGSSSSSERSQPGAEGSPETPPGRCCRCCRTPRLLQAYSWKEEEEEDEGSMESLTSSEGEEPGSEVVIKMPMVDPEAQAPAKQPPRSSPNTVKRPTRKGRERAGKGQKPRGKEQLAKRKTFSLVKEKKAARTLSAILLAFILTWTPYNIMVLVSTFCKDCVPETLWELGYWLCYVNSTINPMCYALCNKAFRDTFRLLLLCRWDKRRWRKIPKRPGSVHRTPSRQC
Chain of Neuronal acetylcholine receptor subunit alpha-4/beta-4 (P43681 whole entry): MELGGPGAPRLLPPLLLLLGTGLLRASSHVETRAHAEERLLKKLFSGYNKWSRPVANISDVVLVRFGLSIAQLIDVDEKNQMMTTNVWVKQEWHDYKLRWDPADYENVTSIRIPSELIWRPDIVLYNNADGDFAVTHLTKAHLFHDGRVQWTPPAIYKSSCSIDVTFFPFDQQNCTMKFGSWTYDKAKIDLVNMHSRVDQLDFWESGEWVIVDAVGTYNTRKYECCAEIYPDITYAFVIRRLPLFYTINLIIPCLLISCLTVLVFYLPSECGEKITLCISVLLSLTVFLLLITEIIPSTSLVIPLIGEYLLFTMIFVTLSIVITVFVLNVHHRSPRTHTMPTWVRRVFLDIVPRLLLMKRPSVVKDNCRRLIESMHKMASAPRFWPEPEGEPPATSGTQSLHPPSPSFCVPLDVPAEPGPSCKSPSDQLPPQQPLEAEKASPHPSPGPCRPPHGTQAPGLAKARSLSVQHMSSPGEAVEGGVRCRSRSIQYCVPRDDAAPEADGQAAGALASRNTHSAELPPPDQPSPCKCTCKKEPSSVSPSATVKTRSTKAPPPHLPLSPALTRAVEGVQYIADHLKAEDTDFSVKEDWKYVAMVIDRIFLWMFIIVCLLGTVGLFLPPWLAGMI
Chain of Neuronal acetylcholine receptor subunit alpha-4/beta-4 (P30926 whole entry): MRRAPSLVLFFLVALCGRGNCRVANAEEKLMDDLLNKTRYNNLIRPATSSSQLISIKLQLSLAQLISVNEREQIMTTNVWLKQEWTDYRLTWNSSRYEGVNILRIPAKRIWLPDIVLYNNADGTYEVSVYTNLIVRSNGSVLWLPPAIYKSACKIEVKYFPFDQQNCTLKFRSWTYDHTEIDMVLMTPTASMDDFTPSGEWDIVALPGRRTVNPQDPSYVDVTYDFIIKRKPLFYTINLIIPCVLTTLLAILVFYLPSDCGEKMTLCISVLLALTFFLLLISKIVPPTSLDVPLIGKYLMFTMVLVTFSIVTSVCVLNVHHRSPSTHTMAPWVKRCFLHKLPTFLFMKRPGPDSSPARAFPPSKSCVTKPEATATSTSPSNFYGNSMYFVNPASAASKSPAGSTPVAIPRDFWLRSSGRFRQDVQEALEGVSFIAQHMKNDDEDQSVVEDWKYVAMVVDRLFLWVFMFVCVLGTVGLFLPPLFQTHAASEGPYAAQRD
Chain of Sigma intracellular receptor 2 (Q5U3Y7 whole entry): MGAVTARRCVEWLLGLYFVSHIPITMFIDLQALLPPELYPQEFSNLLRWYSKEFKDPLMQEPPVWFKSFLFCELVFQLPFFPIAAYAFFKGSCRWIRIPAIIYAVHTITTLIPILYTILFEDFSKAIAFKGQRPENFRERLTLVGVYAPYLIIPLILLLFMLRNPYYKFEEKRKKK

**Q.** “CAS_82830-44-2::(2R)-1-(4-iodo-2,5-dimethoxyphenyl)propan-2-amine::DOI,(-)::US20250270173, Compound DOI” was tested. Which Ki [1] did it give?
**A.** > 10 µM

**Q.** What about the Ki [2] of the same compound?
**A.** > 10 µM

**Q.** What about the Ki [3] of the same compound?
**A.** > 10 µM

**Q.** And the Ki [4]?
**A.** 0.34 µM

**Q.** Which results are given for CC[C@H]1C[C@@H]2C[C@H]3c4[nH]c5ccc(OC)cc5c4CCN(C2)[C@@H]13?
**A.** Ki [5]: > 10 µM; IC50 [6]: 7.6 µM; Ki [7]: 2.46 µM; Ki [8]: > 10 µM; Ki [9]: 2.22 µM; Ki [10]: 9.31 µM; Ki [11]: 31.6 µM; Ki [12]: > 100 µM; Ki [13]: 2.5 µM; IC50 [14]: 3.2 µM; Ki (Mu-type opioid receptor): 11 µM and 2 µM; Ki [15]: 3.9 µM; Ki [16]: 3.31 µM; Ki [17]: > 100 µM; IC50 [18]: 5.9 µM; Ki [19]: > 100 µM; Ki (D(2) dopamine receptor): > 10 µM; Ki [20]: 1.98 µM; Ki [21]: 31 µM; Ki (D(3) dopamine receptor): 70 µM; Ki [22]: 0.0904 µM; Ki [23]: 50.1 µM; Ki [24]: 12.5 µM; Ki [25]: 1.19 µM
